# Test results: US9840583B2, “Fluorescent polymers and applications thereof” (Board of Regents, The University of Texas System, priority 2013, dated 2017)
# Assay: Photostability under continuous UV excitation
# Type: physicochemical
# Details: continuous UV excitation for 3 h
# Method: The photostability of ABPLP micelles was also investigated and compared to the organic fluorescent dye rhodamine-B. The fluorescence intensity of the ABPLP micelle solution decreased by only 1 percent of the initial intensity after continuous UV excitation for 3 h, indicating excellent photostability. In contrast, rhodamine-B lost almost 10 percent of initial fluorescence intensity within the same experimental period.
smiles,measurement,value
CCN(CC)c1ccc2c(-c3ccccc3C(=O)O)c3ccc(=[N+](CC)CC)cc-3oc2c1.[Cl-] [rhodamine-B],Loss of initial fluorescence intensity,~10%
